Data from patent publication US20110059076A1, “HUMAN SERUM ALBUMIN LINKERS AND CONJUGATES THEREOF” (priority 2008, published 2011).
Several values for one entry are separate records, joined by “and”; a condition that tells them apart may be missing. Identical values can stand only once. Entries after “also recorded” stand apart in the source; their conditions may differ.

Columns and labels:
[1] = system: ErbB3 phosphorylation in BT-474-M3 cells; experiment: HRG-induced ErbB3 phosphorylation ELISA in BT-474-M3; format: cell-based, human; settings: BT-474-M3, dose titration 24 hours, 5 nM HRG 1β EGF domain 10 minutes
Procedure: (§1) Except as noted, ELISA reagents for total and phospho-ErbB3 ELISAs are purchased from R&D Systems as DUOSET kits. 96-well NUNC MAXISORB plates are coated with 50 μl of an antibody and incubated overnight at room temperature. Next morning, plates are washed 3 times with 1000 μl/well in a BIOTEK plate washer with Dulbecco's phosphate buffered saline without calcium or magnesium (PBS) with added Tween detergent (PBST) (0.05% Tween-20). […] The plates are washed 3 times with 1000 μl/well in the BIOTEK plate washer with PBST. Cells are grown at 37° C. and 5% carbon dioxide, washed with cold PBS, then harvested with mammalian protein extract (MPER) lysis buffer (Pierce, 78505) to which 150 mM NaCl, 5 mM sodium pyrophosphate, 10 uM bpV (phen), 50uM phenylarsine, 1 mM sodium orthovanadate, and protease inhibitor cocktail (Sigma, P2714) is added. 50 μL of cell lysates and standards diluted in 50% Lysis buffer and 1% BSA are used in duplicates for further processing. Samples are incubated for 2hrs at 4° C. on a plate shaker and washed as before. About 50 μl of a detection antibody diluted in 2% BSA, PBST is added and incubated for about 1-2 hrs at room temperature. […] About 50 μL of SUPERSIGNAL ELISA Pico (Thermo Scientific) substrate is added and the plate is read using a FUSION plate reader. […]

[2] = system: ErbB3 phosphorylation in ZR75-30 cells; experiment: HRG-induced ErbB3 phosphorylation ELISA in ZR75-30; format: cell-based, human; settings: ZR75-30, dose titration 24 hours, 5 nM HRG 1β EGF domain 10 minutes
Procedure: as §1

BT-474 cells = experiment: cell impedance proliferation assay (RT-CES); format: cell-based; settings: calculated 68 hours after treatment, read-out: IC50 of inhibition of cell impedance
[3] = system: Calu-3 (human lung adenocarcinoma) xenograft; experiment: Calu-3 xenograft model; format: in vivo, mice; settings: Calu-3, 30 mg/kg every 3 days
Excerpt: (§2) Calu-3 (human lung adenocarcinoma; FIG. 17A), SKOV-3 (human ovarian adenocarcinoma; FIG. 17B), NCI-N87 (human gastric carcinoma; FIG. 17C), ACHN (human kidney adenocarcinoma; FIG. 17D), and MDA-MB-361 (human breast adenocarcinoma; FIG. 17E) xenograft model are shown.

[4] = system: SKOV-3 (human ovarian adenocarcinoma) xenograft; experiment: SKOV-3 xenograft model; format: in vivo, mice; settings: SKOV-3, 30 mg/kg every 3 days
Excerpt: as §2

[5] = system: NCI-N87 (human gastric carcinoma) xenograft; experiment: NCI-N87 xenograft model; format: in vivo, mice; settings: NCI-N87, 30 mg/kg every 3 days
Excerpt: as §2

[6] = system: ACHN (human kidney adenocarcinoma) xenograft; experiment: ACHN xenograft model; format: in vivo, mice; settings: ACHN (4.5×10^4 ErbB2 receptors/cell), 30 mg/kg every 3 days
Excerpt: as §2

ADRr-E2 xenografts = experiment: ADRr-E2 (ErbB2 over-expressing) xenograft model; format: in vivo, nude mice; settings: ADRr-E2, 30 mg/kg every 3 days
Excerpt: ErbB2 is over-expressed in ADRr breast cancer cells using a retroviral expression system. Transfected cells expressing high levels of ErbB2 (ADRr-E2) are selected using FACS and subsequently injected subcutaneously into nude mice to establish xenograft tumors.

[7] = system: ErbB3 phosphorylation in 9 tumor cell lines; experiment: pErbB3 inhibition ELISA across 9 tumor cell lines versus ErbB2 expression; format: cell-based; settings: 5×10^4 to 2.4×10^6 ErbB2 receptors/cell
[8] = system: 10 tumor xenograft models; experiment: activity in 10 tumor xenograft models versus ErbB2 expression; format: in vivo; settings: low to high ErbB2
[9] = system: p27^kip1 in BT474-M3 breast tumor cells; experiment: p27kip1 sub-cellular location by immunofluorescence; format: cell-based; settings: 1 μM, 6 hours
Procedure: The sub-cellular location of p27^kip1 is assessed using immunofluorescence techniques.

[10] = system: Ki67 in BT474-M3 breast tumor xenografts; experiment: Ki67 staining of xenograft tumors; format: in vivo; settings: 30 mg/kg every 3 days, 4 doses
[11] = system: CD31 in BT474-M3 breast cancer xenograft tumors; experiment: CD31 staining (vessel density) of xenograft tumors; format: in vivo; settings: 30 mg/kg every 3 days, 4 doses
Excerpt: Tumors are stained for the presence of vascular marker CD31.

[12] = system: phosphorylated ErbB3 in BT-474-M3 xenograft tumors; experiment: pErbB3 Western blot of xenograft tumors; format: in vivo; settings: 30 mg/kg every 3 days, 4 doses, harvested 24 hours after final dose
Excerpt: Equal quantities of protein are loaded in each lane and total protein levels are controlled by probing for beta tubulin.

[13] = system: control BT-474-M3 breast cancer cell xenografts; experiment: BT-474-M3 shControl xenografts; format: in vivo, nude mice; settings: 30 mg/kg B2B3-1 every 3 days or 10 mg/kg trastuzumab every week, i.p.
Procedure: ShRNA technology is applied to knock out the activity of the tumor suppressor gene phosphatase and tensin homolog (PTEN) in BT-474-M3 breast cancer cells. Briefly, cultured BT-474-M3 cells are transfected with shPTEN or shControl RNA by retroviral transfection. Transfected cells with reduced PTEN are selected using FACS and subsequently injected subcutaneously into the right flank of nude mice to establish xenograft tumors. Cells transfected with a control vector are injected into the left flank of the same mouse. […] All injections are done i.p.

[14] = system: pAKT in BT-474-M3 xenografts that have reduced PTEN activity; experiment: pAKT Western blot of PTEN deficient BT-474-M3 xenograft tumors; format: in vivo; settings: 30 mg/kg B2B3-1 every 3 days or 10 mg/kg trastuzumab weekly
Excerpt: Equal quantities of protein are loaded in each lane and total protein levels are controlled by probing for PCNA.

[15] = single dose pharmacokinetics in nu/nu mice; format: in vivo; settings: for AUC / Clearance / T½β: Mouse (single dose)
Procedure: Blood is collected pre-dose and at 0.5, 4, 8, 24, 48, 72, and 120 hours post dose. Three mice are used for each time point. […] The HSA ELISA utilizes a polyclonal-anti HSA capture antibody and a HRP-conjugated polyclonal anti-HSA detection antibody.

[16] = system: pErbB3 and pAKT in BT-474-M3 cells; experiment: Western blot of heregulin induced ErbB3 activity in BT-474-M3 cells; format: cell-based; settings: BT-474-M3, 24 hours, 10 nM or 100 nM, with or without 5 nM HRG 1β EGF
Excerpt: Lysates are subjected to immunoblot analysis for ErbB3, pErbB3, AKT, and pAKT.

In the case of “B2B3-1: bispecific scFv antibody fusion: anti-ErbB3 scFv H3 and anti-ErbB2 scFv B1D2 joined by a modified human serum albumin (HSA) linker”, the “inhibition of HRG induced ErbB3 phosphorylation” value [1] is reported as “inhibits”, the “inhibition of HRG induced ErbB3 phosphorylation” value [2] is reported as “inhibits” and the IC50 (BT-474 cells) is reported as 33 nM. For the same substance, the tumor size reduction [3] was “efficacious”, the tumor size reduction [4] was “efficacious” and the tumor size reduction [5] was “efficacious”. The tumor size reduction [6] was “worked less well”, the xenograft response (ADRr-E2 xenografts) was “responded; also recorded: responder” and the “% pErbB3 inhibition in relation to ErbB2 expression levels” value [7] was “correlates positively”. For the same substance, the “xenograft response in relation to ErbB2 expression levels” value [8] was “correlates positively”, the “sub-cellular location of p27^kip1” value [9] was “translocated to the nucleus; also recorded: translocation of cell cycle inhibitor p27^kip1 to the nucleus” and the “Ki67 expression compared to HSA treated tumors” value [10] was “reduced expression pattern; also recorded: reduction”. The “vessel density (CD31) compared to HSA treated tumors” value [11] was “marked decrease in vessel density; also recorded: reduction of vessel density”, the “pErbB3 in tumors compared to HSA treated tumors” value [12] was “significantly less pErbB3” and the “size of tumors formed by control BT-474-M3 cells” value [13] was “promoted a reduction”. For the same substance, the “pAKT in tumors (densitometry of Western blot)” value [14] was “significantly less pAKT; also recorded: able to inhibit phosphorylation”, the AUC ([15]; 5 mg/kg IV) was 1.58E+03 hr-μg/ml and the Clearance ([15]; 5 mg/kg IV) was 3.19 mL/h/kg. The T½β ([15]; 5 mg/kg IV, 5 mg/kg) was 17 h and 16.9 h, the AUC ([15]; 15 mg/kg IV) was 6.10E+03 hr-μg/ml and the Clearance ([15]; 15 mg/kg IV) was 2.47 mL/h/kg. For the same substance, the T½β ([15]; 15 mg/kg IV, 15 mg/kg) was 16 h and 16.2 h, the AUC ([15]; 30 mg/kg IV) was 1.18E+04 hr-μg/ml and the Clearance ([15]; 30 mg/kg IV) was 2.54 mL/h/kg. The T½β ([15]; 30 mg/kg IV, 30 mg/kg) was 23 h and 22.6 h, the AUC ([15]; 45 mg/kg IV) was 1.84E+04 hr-μg/ml and the Clearance ([15]; 45 mg/kg IV) was 2.46 mL/h/kg. The T½β ([15]; 45 mg/kg IV, 45 mg/kg) was 18 h and 17.5 h, the dose-exposure relationship ([15]; nu/nu mice, 5, 15, 30 and 45 mg/kg bolus doses) was “linear increase in overall exposure” and the “inhibition of pAKT” value [16] was “in a ligand dependent manner”. For the same substance, the “inhibition of pErbB3” value [16] was “in a ligand dependent manner”.
